Experimental data reported in US7354918B2, “Derivatives of 14.15-dihydro 20.21-dinoreburnamenin-14-ol and applications thereof” (Biocortech, priority 2004, dated 2008).
Values belong to the molecule of their own block, whether it stands above or below them.

Tests used:
[1] = test system: tyrosine hydroxylase (TH) in the Locus Caeruleus (LC); test: TH protein content in the locus caeruleus, direct transfer of brain sections on nitrocellulose, quantitative immunochemistry; format: in vivo, Balb/c mice; conditions: for Quantity of TH measured in the LC: single dose 20 mg/kg i.p., sacrificed three days after injection, average±sem on the entire structure, percent of the average value of the corresponding control group
Balb/c variety = test: Tail Suspension Test (TST); format: in vivo, Balb/c mice; conditions: 6-minute period, vehicle 180
Experimental: The behavioural activity test, the Tail Suspension Test (TST) validated by antidepressants (Ref. 7) in the Balb/c variety, was also done for the molecule in the preferred example (Ie1b) at a dose of 1 mg/kg i.p. The experiment given as an example was carried out three days after a single injection and the effect was compared with the effect of imipramine (30 mg/kg i.p. 30 minutes before the test) (see Table 4 below).
The results are the average for n animals.

[2] = test system: cells expressing hypocretins in the lateral hypothalamus; test: Distribution of cells expressing hypocretins in the lateral hypothalamus by immunocytochemistry; format: in vivo, Balb/c mice; conditions: single dose 20 mg/kg i.p.
Experimental: This property is shared with its direct synthesis precursor, the compound with formula (1). Table 3 below illustrates this type of result the two chemical entities:
The distribution of cells expressing hypocretins in the lateral hypothalamus is studied here with posterior—anterior sampling in consecutive 80 μm thick intervals. The cells are identified by immunocytochemistry using specific antibodies. The two molecules studied were administered by i.p. method with a single dose of 20 mg/kg. The animals were sacrificed three days after injection. A population of about a hundred supernumerary cells is thus identified at the posterior third of the cerebral core.

[3] = Biodistribution study (brain, liver) after i.p. and oral administration; format: in vivo; conditions: for share of the cerebral concentration: 45 minutes after p.o. administration of (Ie1) 60 mg/kg
SK+Ca channels = test: Receptorial profile in vitro on 74 receptors and channels; format: binding; conditions: concentration of 10 micromoles
M1 receptors = biological target: T1, M1 receptors (Homo sapiens, UniProt P11229); test: as above; format: binding; conditions: concentration of 10 micromoles
T1 sequence (P11229 1-460): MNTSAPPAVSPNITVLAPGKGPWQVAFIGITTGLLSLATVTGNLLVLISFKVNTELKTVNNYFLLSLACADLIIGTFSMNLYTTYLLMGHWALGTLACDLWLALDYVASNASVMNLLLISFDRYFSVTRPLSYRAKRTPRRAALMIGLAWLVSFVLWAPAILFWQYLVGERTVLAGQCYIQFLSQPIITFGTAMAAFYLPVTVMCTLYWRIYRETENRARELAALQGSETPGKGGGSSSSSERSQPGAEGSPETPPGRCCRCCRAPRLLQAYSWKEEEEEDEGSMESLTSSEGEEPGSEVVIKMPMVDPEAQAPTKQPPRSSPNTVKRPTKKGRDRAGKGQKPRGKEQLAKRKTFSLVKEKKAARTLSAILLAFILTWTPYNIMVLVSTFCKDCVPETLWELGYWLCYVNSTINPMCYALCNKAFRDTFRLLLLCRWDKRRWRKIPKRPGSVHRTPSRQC

[4] = test system: voltage dependent Na channels; test: as above; format: binding; conditions: concentration of 10 micromoles
[5] = test system: voltage dependent Ca channels; test: as above; format: binding; conditions: concentration of 10 micromoles
[6] = test system: cells containing TH in the LC; test: Number of TH immunopositive cells in the LC by immunohistochemistry; format: in vivo, Balb/c mice
Experimental: The number of immunopositive cells for TH is determined starting from coronal brain sections fixed by immunohistochemistry using the same anatomic sampling.
The results in FIG. 2 show the posterior-anterior distribution of the number of cells containing TH in the LC determined by immunohistochemistry obtained in a control group of Balb/c mice and in a group of mice treated by the molecule with formula (Ie1). Each bar represents the average obtained in each 80 μm anatomic interval in each experimental group±sem. **** indicates p<0.0001 determined by an ANOVA II (treatment factor). […] In the entire structure, the average values found were equal to 996±1 and 1250±58 in the control group and in the treated group respectively. (Administered dose 20 mg/kg i.p. sequential treatment at D0, D3, D6, D9 and D12, animals sacrificed at D16).
This phenomenon may be stabilised by an appropriate sequential treatment (for example: one 20 mg/kg i.p. injection every 3 days for 15 days, see FIG. 2). Under these conditions, the increase in the number of positive supernumerary TH cells that appeared in the LC is still maintained for 24 days after the treatment stopped.

[7] = test system: voltage dependent K channels; test: Receptorial profile in vitro on 74 receptors and channels; format: binding; conditions: concentration of 10 micromoles
[8] = test system: catecholamine transport systems; test: as above; format: binding; conditions: concentration of 10 micromoles
[9] = test system: positive TH fibres of the prefrontal cortex; test: Positive TH (noradrenergic) fibres in the prefrontal cortex by immunocytochemistry; format: in vivo, Balb/c mouse; conditions: 5 i.p. injections 20 mg/kg every three days, sacrificed three days after the last injection
Description: The results in FIG. 3 show the distribution of positive TH fibres on a prefrontal cortex sample of the Balb/c mouse. At left: in a control mouse, the typical orientation (parallel to the surface of the cortex) of noradrenergic fibres identified using an immunocytochemical reaction related to the presence of TH protein, is noticed in the molecular layer of the prefrontal cortex. […] The animals were sacrificed three days after the last injection. The dashed lines mark the limit of the molecular layer of the prefrontal cortex.

5HT5A receptors = 5HT5A receptors (Homo sapiens, UniProt P47898); test: Receptorial profile in vitro on 74 receptors and channels; format: binding; conditions: concentration of 10 micromoles
5HT5A receptors, sequence (P47898 whole entry): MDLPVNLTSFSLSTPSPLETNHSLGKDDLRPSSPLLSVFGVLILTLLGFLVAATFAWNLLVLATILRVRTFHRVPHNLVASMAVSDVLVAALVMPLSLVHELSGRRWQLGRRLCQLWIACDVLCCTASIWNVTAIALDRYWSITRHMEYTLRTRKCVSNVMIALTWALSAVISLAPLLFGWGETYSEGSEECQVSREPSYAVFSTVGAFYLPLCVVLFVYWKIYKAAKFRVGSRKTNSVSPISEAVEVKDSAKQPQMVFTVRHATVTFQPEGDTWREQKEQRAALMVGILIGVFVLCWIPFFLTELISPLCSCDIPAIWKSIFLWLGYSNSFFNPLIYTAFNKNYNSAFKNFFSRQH

[10] = Interval 1 (80 μm, posterior-anterior), sacrificed three days after injection
[11] = Interval 2, three days after injection
[12] = Interval 3, three days after injection
[13] = Interval 4, three days after injection
[14] = Interval 5, three days after injection
[15] = Interval 6, three days after injection
[16] = Interval 7, three days after injection
[17] = Interval 8, three days after injection
[18] = Interval 9, three days after injection
[19] = Interval 10, three days after injection
[20] = Interval 11, three days after injection
[21] = Sum of intervals 1-11, three days after injection

Molecule: Cc1noc(COC2C[C@@H]3CCCN4CCc5c(n2c2ccccc52)[C@@H]34)n1 (mixture of isomers) [(Ig1), (±) (3β, 16α) 14,15-dihydro 14-(3-methyl-[1,2,4]oxadiazol-5-ylmethoxy) 20,21-dinoreburnamenin]
Quantity of TH measured in the LC [1]: 118 ± 3%

Molecule: CN(C)CCCN1c2ccccc2CCc2ccccc21 [Imipramine, imipramine, reference compound]
Average immobilisation time (Balb/c variety; 30 mg/kg i.p. 30 minutes before the test): 70 s

Molecule: C1=Cn2c3c(c4ccccc42)CCN2CCC[C@@H]1[C@H]32 [(Ij1)]
Quantity of TH measured in the LC [1]: 123 ± 2%

presence of the substance after i.p. administration of compound (Ie1) ([3]; 45 minutes after i.p. administration of (Ie1) 20 mg/kg): undetectable
share of the cerebral concentration [3]: 11%
Molecule: OC1C[C@H]2CCCN3CCc4c(n1c1ccccc41)[C@@H]23 (stereo partly drawn) [Compound (1), 14,15 dihydro-20,21-dinoreburnamenin14-ol, reference compound]
Number of cells expressing hypocretins [2, 10]: 60.357
Number of cells expressing hypocretins [2, 11]: 116.369
Number of cells expressing hypocretins [2, 12]: 177.209
Number of cells expressing hypocretins [2, 13]: 317.237
Number of cells expressing hypocretins [2, 14]: 367.454
Number of cells expressing hypocretins [2, 15]: 377.594
Number of cells expressing hypocretins [2, 16]: 365.523
Number of cells expressing hypocretins [2, 17]: 236.600
Number of cells expressing hypocretins [2, 18]: 136.166
Number of cells expressing hypocretins [2, 19]: 60.840
Number of cells expressing hypocretins [2, 20]: 23.177
Number of cells expressing hypocretins [2, 21]: 2238.526
Quantity of TH measured in the LC [1]: 120 ± 4%

activity relative to the other enantiomer (Ie1a) ([1]; mouse, in vivo): twice as active
Molecule: 14,15-dihydro 14-(2-morpholin-4-yl-ethoxy) 20,21-dinoreburnamenin [(Ie1b)]
Average immobilisation time (Balb/c variety; 1 mg/kg i.p., three days after a single injection): 130 s

Molecule: c1ccc(COC2C[C@@H]3CCCN4CCc5c(n2c2ccccc52)[C@@H]34)cc1 (mixture of isomers) [Compound (Id), (±) (3β, 16α) 14,15-dihydro 14-benzyloxy 20,21-dinoreburnamenin]
Quantity of TH measured in the LC [1]: 129 ± 5%

Molecule: c1ccc2c(c1)c1c3n2[C@H](OCCN2CCOCC2)C[C@@H]2CCCN(CC1)[C@@H]32 (racemic) [Compound (Ie1), 14,15-dihydro 14-(2-morpholin-4-yl-ethoxy) 20,21-dinoreburnamenin]
interaction with SK+Ca channels (SK+Ca channels): no interaction
affinity for M1 receptors (M1 receptors): moderate affinity link may be suspected
interaction with voltage dependent Na channels [4]: no interaction
interaction with voltage dependent Ca channels [5]: no interaction
Number of cells expressing hypocretins [2, 10]: 31.9
Number of cells expressing hypocretins [2, 11]: 63.7
Number of cells expressing hypocretins [2, 12]: 125.1
Number of cells expressing hypocretins [2, 13]: 210.5
Number of cells expressing hypocretins [2, 14]: 331.7
Number of cells expressing hypocretins [2, 15]: 369.9
Number of cells expressing hypocretins [2, 16]: 388.7
Number of cells expressing hypocretins [2, 17]: 322.5
Number of cells expressing hypocretins [2, 18]: 216.3
Number of cells expressing hypocretins [2, 19]: 104.8
Number of cells expressing hypocretins [2, 20]: 56.0
Number of cells expressing hypocretins [2, 21]: 2221.1
number of cells containing TH in the LC, entire structure (average) ([6]; 20 mg/kg i.p. sequential treatment at D0, D3, D6, D9 and D12, sacrificed at D16, control group 996±1): 1250±58
time for which the increase in positive supernumerary TH cells in the LC is maintained after the treatment stopped ([6]; one 20 mg/kg i.p. injection every 3 days for 15 days): 24 days
cerebral concentration/hepatic concentration ratio ([3]; 45 minutes after i.p. administration, 20 mg/kg): 0.41
cerebral concentration/hepatic concentration ratio ([3]; 45 minutes after os administration, 60 mg/kg): 0.49
share of the cerebral concentration [3]: 89%
interaction with voltage dependent K channels [7]: no interaction
50% effective dose (DE50) ([1]; intra-peritoneal (i.p.) method): 0.5 mg/kg
activity relative to direct synthesis precursor with formula (1) ([1]; mouse, in vivo): 30 times
activity by mouth ([1]; oral): active by mouth
50% effective dose (DE50) ([1]; oral (p.o.) method): 1.5 mg/kg
Quantity of TH measured in the LC [1]: 138 ± 4%
interaction with catecholamine transport systems [8]: no interaction
density of noradrenergic fibres in the prefrontal cortex [9]: very significant increase
affinity for 5HT5A receptors (5HT5A receptors): moderate affinity link may be suspected

Molecule: CCOC(=O)COC1C[C@@H]2CCCN3CCc4c(n1c1ccccc41)[C@@H]23 (mixture of isomers) [(Ia1), (±) (16α) 14,15-dihydro 14-ethoxycarbonylmethoxy-20,21-dinoreburnamenin]
Quantity of TH measured in the LC [1]: 151 ± 5%

Molecule: O=C(COC1CC2CCCN3CCc4c(n1c1ccccc41)C23)NCCN1CCOCC1 (racemic) [Compound (If1), (±) (3β, 16α) 14,15-dihydro 14-[(2-morpholin-4-yl-ethylcarbamoyl)-methoxy]20,21-dinoreburnamenin]
increase of the total TH content in the LC ([1]; FIG. 1, 3 days after a single i.p. injection (20 mg/kg), versus control mice): 13±3%
Quantity of TH measured in the LC [1]: 113 ± 4%
